Test system: BCR-ABL+ pre-B cells
Test: Rescue of BCR-ABL+ pre-B cells from imatinib-induced cell death; cell cycle analysis (FIGS. 6 and 7)
Assay type: cell-based, mice
Details: for effect on BCR-ABL inhibitor (imatinib)-induced cell death: Imatinib 1 μM, IL7 2.5 ng/ml, CXCL12 100 ng/ml, AMD3100 10 μM

## c1cc(CN2CCCNCCNCCCNCC2)ccc1CN1CCCNCCNCCCNCC1 [AMD3100, reference compound]
  effect on BCR-ABL inhibitor (imatinib)-induced cell death: did not affect imatinib treatment

## TSLP: the ligand for CRLF2
  effect on BCR-ABL inhibitor (imatinib)-induced cell death: did not affect imatinib treatment

B1: IL7: interleukin 7, a cytokine which is important for B and T cell development (protein, UniProt P13232 26-177, looked up)
Interleukin-7: DCDIEGKDGKQYESVLMVSIDQLLDSMKEIGSNCLNNEFNFFKRHICDANKEGMFLFRAARKLRQFLKMNSTGDFDLHLLKVSEGTTILLNCTGQVKGRKPAALGEAQPTKSLEENKSLKEQKKLNDLCFLKRLLQEIKTCWNKILMGTKEH
  effect on BCR-ABL inhibitor (imatinib)-induced cell death: counteracted the BCR-ABL inhibitor-induced cell death
Imatinib in the presence of IL7
  cell cycling under imatinib treatment: restored cell cycling

From patent US20210324092A1, “MONOCLONAL ANTIBODY COMPOSITION FOR TREATMENT OF PHILADELPHIA CHROMOSOME POSITIVE ACUTE LYMPHOBLASTIC LEUKEMIA” (priority 2018, published 2021)
